Values of other authors, collected in patent publication US20190365664A1, “CARYOPHYLLENE FORMULATIONS, APPARATUSES, AND METHODS” (Biotech Institute, LLC, priority 2016, published 2019).

Settings: other studies (National Geographic News, Jun. 24, 2008)

For C=C1CC/C=C(\C)CC[C@@H]2[C@@H]1CC2(C)C [BCP, 4,11,11-Trimethyl-8-methylenebicyclo[7.2.0]undec-4-ene], the psychoactive effects is given as “does not have psychoactive effects”.
